The results in this text go back to patent US6641840B2, “Sustained release formulations for growth hormone secretagogues” (Pfizer Inc., priority 2000, dated 2003).

Data set [1] is described as follows: Osmotic agent selection based on active compound solubility screening. The class given is physicochemical. Conditions: 37 °C, aqueous with cosolvent or surfactant or cyclodextrin. On the procedure: The osmogens were screened by preparing a saturated solution (unless otherwise noted) of the candidate osmogen in water at 37° C. for 2 hours, and filtering the undissolved portion as described in Example 5.

In another data set the test system is rat pituitary cells. Nature of the data set: Pituitary cell desensitization - growth hormone release assay. Format: cell-based. The note with it: for GH release: treatment 10 nM Compound A 15 min. The method, then: The experiment was designed so that cultures were exposed to a growth hormone secretagogue for 60 min, then growth hormone release was measured during a subsequent 15 min exposure to the same or different growth hormone secretagogue.
Anterior pituitary glands from male Wistar rats (150-175 g, Charles River, Laboratories, Wilmington, Mass.) were collected in Hank's Balanced Salt Solution (#14170, Life Technologies, Gaithersburg, Md.). Glands were minced with a scalpel, then incubated with bacterial protease (Type IX, EC3.4.24.4, #P-6141, Sigma Chemicals, Milwaukee, Wis.) at 10 U/ml to release individual cells. Cells were pelleted by centrifugation at 200×g for 15 min, then suspended in culture medium and plated at a density of 6.0-6.5×10^4 cells per 0.5 ml per well in 48-well tissue culture plates (#3848, Costar Corporation, Cambridge, Mass.). Culture medium consisted of D-MEM (Dulbecco's Modified Eagle Medium) with high glucose and sodium bicarbonate (#11965) supplemented with 10% heat-inactivated horse serum (#26050, Life Technologies, Gaithersburg, Md.), 2.5% fetal bovine serum (#16140, Life Technologies, Gaithersburg, Md.), 0.1 mM MEM non-essential amino acids (#11140, Life Technologies, Gaithersburg, Md.), 100 U/ml nystatin (#15340, Life Technologies, Gaithersburg, Md.) and 50 ug/ml gentamicin sulfate (#15750, Life Technologies, Gaithersburg, Md.). Cultures were maintained for 3-4 days in a humidified, 5% CO2/95% air incubator at 37° C. prior to performing assays for growth hormone release.
For growth hormone release assays, cultures were pre-equilibrated at 37° C. in pre-warmed release medium for 1 h in the presence of a growth hormone secretagogue or excipient (Pretreatment). Release medium consisted of Phenol Red-free D-MEM without bicarbonate (#23800, Life Technologies, Gaithersburg, Md.) supplemented with 25 mM N-[2-hydroxyethyl]piperazine-N′-[2-ethanesulfonic acid] (HEPES), 4.5 g/L glucose, 0.11 g/L sodium pyruvate, 0.584 g/L […] and 0.5% bovine serum albumin (#A-7888, Sigma Chemicals, Milwaukee, Wis.), adjusted to pH 7.4. After pretreatment, the medium was removed and replaced with fresh pre-warmed release medium containing a growth hormone secretagogue or excipient at 0.5 ml/well for 15 min (Treatment). Medium from the Treatment was collected, centrifuged to remove any cells, then assayed for growth hormone content by a conventional double-antibody radioimmunoassay using monkey anti-growth hormone antisera (NIDDK anti-rGH-S-5) and reference rat growth hormone standard (NIDDK-rGH-RP) from Dr. A. F. Parlow, Harbor-UCLA Medical Center, Torrance, Calif. Immune complexes were precipitated using goat anti-monkey immunoglobulin G (#55418, Cappel, Durham, N.C.).
Growth hormone secretagogue solutions were prepared at 1000 times the desired concentration and diluted into pre-warmed release medium immediately before use. Peptides such as His-D-Trp-Ala-Trp-Ala-Trp-D-Phe-Lys-NH2 (GHRP-6, #8061, Peninsula Laboratories, Belmont, Calif.) and rat growth hormone releasing factor (GHRH, #8068, Peninsula Laboratories, Belmont, Calif.) were dissolved at 100 μM in 4 mM acetic acid, 10% ethanol, 0.1% bovine serum albumin; other growth hormone secretagogues were dissolved at 5 mM in dimethyl sulfoxide.

Data set [2] deals with insulin-like growth factor binding protein 3 (IGFBP-3). Nature of the data set: Clinical study: IGFBP-3. Format: in vivo, human. Conditions: first leg, immediate release dosing. An excerpt: (All dosage forms in this part of the study were immediate release dosage forms.)
The primary efficacy endpoint was the percentage change from baseline in IGF-1. Secondary outcomes included insulin-like growth factor binding protein 3 (IGFBP-3), cholesterol subfractions, and percent changes in total adipose and total lean tissue. Changes in each of the secondary efficacy measures over time were examined systematically either graphically or in tabular form and summarized using appropriate descriptive statistics as is well known in the art.

Another data set deals with growth hormone. The data set can be described thus: Clinical extension study: growth hormone secretion profile (GH peaks). Format: in vivo, human. On the procedure:
In addition, an extension study was conducted to evaluate the relationship between peak GH concentrations or IGF-I versus surrogate responses such as lipid concentrations and body composition. A sustained release (SR) formulation was also evaluated, either alone or combined with an immediate release (IR) formulation (24-30 patients per group). [16 mg (10 SR, 6 IR) h.s. (h.s. means at bedtime); 16 mg (10 SR, 6 IR) h.s. every third day; 16 mg SR h.s.; and placebo.] The formulations are set forth below.
In addition to this schedule, subjects at selected sites in the extension study were studied during two overnight admissions on the first night of dosing and again on day 28 of dosing. Growth hormone secretion and pharmacokinetic sampling was carried out.
A follow-up evaluation was made at 1, 2, and 4 weeks. Vital signs were obtained and the skin of the face, trunk and upper extremities was inspected.
In addition, subjects at selected study centers were admitted to an overnight unit on day 28 of dosing. Growth hormone secretion profile, pharmacokinetics, and vital sign determination were carried out.

Data set [3] can be described thus: Solubility and osmotic pressure of the active compound (statement). The class given is physicochemical.

Read-outs that look alike come from different tables or passages of the source.

One may read the solubility as the dissolved amount per volume that the medium holds. Regarding `CN1N=C2CCN(C(=O)[C@@H](COCc3ccccc3)NC(=O)C(C)(C)N)C[C@@]2(Cc2ccccc2)C1=O.O=C(O)C(O)C(O)C(=O)O` [Compound A], the solubility at 5 min in data set [1] (filtrate of osmogen solution in water, fructose solution 250 mg/ml (below saturation), read-out: COMPOUND A Solubility) is less than 50 mg/mL; in data set [1] (filtrate of osmogen solution in water, visual screening, read-out: active compound solubility measured in this manner), greater than 150 mg/mL; in data set [1] (filtrate of saturated lactose solution in water, saturated lactose solution, approx. 200 mg/ml, read-out: COMPOUND A Solubility) it was greater than 150 mg/mL; in data set [1] (filtrate of saturated mannitol solution in water, saturated mannitol solution, approx. 180 mg/ml, read-out: COMPOUND A Solubility) it was greater than 150 mg/mL; in data set [1] (filtrate of saturated sodium bitartrate solution in water, saturated sodium bitartrate solution, approx. 110 mg/ml, read-out: COMPOUND A Solubility), greater than 150 mg/mL; in data set [1] (sorbitol solution in water, 250 mg/ml (below saturation), sorbitol solution 250 mg/ml (below saturation), read-out: COMPOUND A Solubility) it was greater than 150 mg/mL. Moreover, the solubility at 5 min in data set [1] (xylitol solution in water, 250 mg/ml (below saturation), xylitol solution 250 mg/ml (below saturation), read-out: COMPOUND A Solubility) was less than 50 mg/mL. For the same compound, the “growth hormone release response” value in the data set on rat pituitary cells (after pretreatment with GHRH) was “stimulation of growth hormone release”; in the data set on rat pituitary cells (after pretreatment with GHRP-6) it was “not”. The GH release in the data set on rat pituitary cells (pretreatment 100 nM GHRH 60 min) is given as 36.99 ± 2.43 ng/mL/15 min; with rat pituitary cells (pretreatment 100 nM GHRP-6 60 min), 7.64 ± 1.92 ng/mL/15 min; in the data set with rat pituitary cells (pretreatment none), 25.17 ± 4.32 ng/mL/15 min. Also, the IGFBP3 entry in data set [2] is on record as “increased”. Also, in the data set on growth hormone (16 mg (10 SR, 6 IR) every third day vs daily), the “GH peak heights, Q 3 day group greater than QD group” value stood at 1.52 ng/mL. Also, the “GH peaks, average” value was 2 ng/mL in the data set with growth hormone (group receiving SR alone (16 mg SR h.s.), after 4 weeks); “less than 4 ng/ml” with growth hormone (group receiving SR alone (16 mg SR h.s.), at baseline); no less than 15 ng/mL with growth hormone (groups receiving 6 mg IR (with 10 mg SR), at baseline); 4 to 6 ng/mL with growth hormone (groups receiving 6 mg IR (with 10 mg SR), by 4 weeks). Further, the osmotic pressure result in data set [3] is listed as “about 4 atmospheres”. Also, in data set [3] (water), the solubility was greater than 150 mg/mL.
